Measurements from US20140057979A1, “Expression Modulator For Clock Gene” (Shiseido Company, Ltd., priority 2012, published 2014).

Legend:
Assay type in all cases: cell-based
hPer1 gene [1] = assay: Clock gene expression regulation, hPer1 expressed amount by RT-PCR in cultured human skin fibroblast cells; conditions: for Relative expressed amount of hPer1 (2 hours): 50 ppm test substance, 2 hours after addition, relative to RPLP0, control 0.24, *p < 0.05; for expressed amount of hPer1 gene in comparison with the control: 50 ppm, 2 hours, Dunnett's test one-sided 5%
Experimental: (§1) The results above confirm that in an evaluation system using cultured human skin fibroblast cells, clock genes acquire a circadian rhythm when stimulated with cortisol. Because it is desirable to evaluate during a time period when the expressed amount is high, the clock gene expression regulation effects of the test substances were evaluated based on the expressed amount of the clock gene 16 hours after stimulation in the case of hBmal1 and 2 hours after stimulation in the case of hPer1.
(§2) Fibroblasts cells from normal human skin (Cell Application, Inc.) were seeded by methods similar to those used above, each chemical was added on the 6th day of culture to a concentration of 50 ppm, and the cells were sampled after 2 hours and after 16 hours. The same amount of ethanol was added instead of the test substance as a control. RNA was extracted from the cells with a commercial RNA extraction kit, and the expressed amounts of the hBmal1 and hPer1 genes were measured by RT-PCR using a commercial PCR primer (Perfect Real Time Primer, Takara Bio). Similarly, the expressed amount of the housekeeping gene RPLP0 was assayed and used as an internal standard to calculate the expressed amounts of the target genes relative to the expressed amount of RPLP0. Dunnett's multiple comparison test was performed on the obtained values, and an effect was recognized if there was a significant difference with a one-sided 5% risk factor in comparison with the control.

hBmal1 gene [2] = assay: Clock gene expression regulation, hBmal1 expressed amount by RT-PCR in cultured human skin fibroblast cells; conditions: for Relative expressed amount of hBmal1 (16 hours): 50 ppm test substance, 16 hours after addition, relative to RPLP0, control 0.48, *p < 0.05; for expressed amount of hBmal1 gene in comparison with the control: 50 ppm, 16 hours, Dunnett's test one-sided 5%
Experimental: as §1, §2

hBmal1 gene [3] = assay: Induction of circadian rhythm of hBmal1 expression with cortisol in cultured human skin fibroblast cells; conditions: 50 ng/ml cortisol, 2 hours of treatment, cells sampled over time (FIG. 2)
Experimental: (§3) It was confirmed that a circadian rhythm of clock gene expression can be induced in a system using cultured human skin fibroblast cells.
(§4) As the cultured human fibroblast cells, fibroblast cells from normal human skin were purchased (Cell Application, Inc.) and used in the experiments. They were seeded on DMEM medium with 10% FBS, 20 mM HEPES, Glutamax and an antibacterial agent added thereto, and cultured at 37° C. in 5% CO2. On the 6th day of culture, 50 ng/ml of cortisol was added, and after 2 hours of treatment the cells were sampled over time. RNA was extracted from the cells with a commercial RNA extraction kit, and the expressed amounts of the hBmal1 and hPer1 genes were measured by RT-PCR using a commercial PCR primer (Perfect Real Time Primer, Takara Bio). Similarly, the expressed amount of the housekeeping gene RPLP0 was assayed and used as an internal standard to calculate the expressed amounts of the target genes relative to the expressed amount of RPLP0.
(§5) In the body, cortisol and other glucocorticoids are involved in regulating the biological clock in peripheral tissue and the like, and it is thought that blood concentrations of cortisol rise at the time of awakening in the morning, resetting the biological clock. […]

hPer1 gene [4] = assay: Induction of circadian rhythm of hPer1 expression with cortisol in cultured human skin fibroblast cells; conditions: 50 ng/ml cortisol, 2 hours of treatment, cells sampled over time (FIG. 2)
Experimental: as §3, §4, §5

## C=C1CC[C@H]2O[C@]2(C)CC[C@@H]2[C@@H]1CC2(C)C [Caryophyllene oxide, (1R,4R,6R,10S)-4,12,12-trimethyl-9-methylene-5-oxatricyclo[8.2.0.04.6]dodecane]
hPer1 gene [1]
  Relative expressed amount of hPer1 (2 hours): 2.29*
  expressed amount of hPer1 gene in comparison with the control: significantly increased
hBmal1 gene [2]
  Relative expressed amount of hBmal1 (16 hours): 3.50*
  expressed amount of hBmal1 gene in comparison with the control: significantly increased

## COC(=O)c1ccccc1C [Methyl 2-methylbenzoate, methyl 2-methylbenzoate]
hPer1 gene [1]
  Relative expressed amount of hPer1 (2 hours): 0.44*
  expressed amount of hPer1 gene in comparison with the control: significantly increased
hBmal1 gene [2]
  Relative expressed amount of hBmal1 (16 hours): 1.01*
  expressed amount of hBmal1 gene in comparison with the control: significantly increased

## COC(=O)c1ccccc1N [Methyl 2-aminobenzoate]
hPer1 gene [1]
  Relative expressed amount of hPer1 (2 hours): 0.64*
  expressed amount of hPer1 gene in comparison with the control: significantly increased
hBmal1 gene [2]
  Relative expressed amount of hBmal1 (16 hours): 1.19*
  expressed amount of hBmal1 gene in comparison with the control: significantly increased

## C[C@]12CCC(=O)C=C1CC[C@@H]1[C@@H]2[C@@H](O)C[C@@]2(C)[C@H]1CC[C@]2(O)C(=O)CO [cortisol]
hBmal1 gene [3]
  cycle of circadian rhythm of hBmal1 expression as a result of cortisol stimulation: roughly 24 hour
hPer1 gene [4]
  cycle of circadian rhythm of hPer1 expression as a result of cortisol stimulation: roughly 24 hour

## CNc1ccccc1C(=O)OC [Methyl 2-methylaminobenzoate]
hPer1 gene [1]
  Relative expressed amount of hPer1 (2 hours): 0.64*
  expressed amount of hPer1 gene in comparison with the control: significantly increased
hBmal1 gene [2]
  Relative expressed amount of hBmal1 (16 hours): 2.52*
  expressed amount of hBmal1 gene in comparison with the control: significantly increased
